Results published in patent publication US8278278B2, “Cell proliferation reducing cancer specific PCNA peptides” (Indiana University Research and Technology Corporation, priority 2008, dated 2012).
“Also recorded” adds a separate entry of the source. Where two headings read alike, the source gives them in different places. Non-standard residues stand in square brackets, D forms with d. Residues, ends and D or L forms follow the SMILES beside them. No end group written: not given here. *: point of attachment. FITC = O=C1OC2(c3ccc(O)cc3Oc3cc(O)ccc32)c2ccc(NC(=S)*)cc21

What was measured:
[1] = tested on: HCC1937 cells lacking BRCA1; assay: MTT growth inhibition assay, HCC1937 cells lacking BRCA1; assay type: cell-based; conditions: for efficacy in MTT assay compared with the other peptides: HCC1937 and HCC1937+wild-type BRCA1 cells, 24 hours
Protocol: MTT [3-(4,5-dimethylthiazol-2-yl)-2,5-diphenyltetrazolium bromide] assays were conducted with caPeptides at a variety of time points both alone and in combination with a DNA damaging agent e.g., cisplatin in HCC1937 and HCC1937+wild-type BRCA1 cells. The MTT assay is based on the ability of a mitochondrial dehydrogenase enzyme from viable cells to cleave the tetrazolium rings of the pale yellow MTT dye and form dark blue formazan crystals. These formazan crystals are largely impermeable to cell membranes and thus accumulate within healthy cells. Solubilization of the cells by the addition of a detergent results in the liberation and solubilization of the crystals. The number of proliferating cells is directly proportional to the level of formazan product created. The color can then be quantified using a simple colorimetric assay. The results are read on a multiwall scanning spectrophotometer (ELISA reader). The peptides used in these experiments including caPeptide, Q131A ([…] (SEQ ID NO: 5)), and P129A ([…] (SEQ ID NO: 3)) were ordered and obtained from Anaspec (Fremont, Calif.). caPeptide was dissolved in sterile 1× PBS solution to create a 1.5 mM stock concentration. caPeptides with alanine substitutions (e.g., P129A (SEQ ID NO: 3) and Q131A (SEQ ID NO: 5)) were dissolved in sterile 1×PBS solution to create 1.0 mM stock solutions.
MTT assays: The efficacy of caPeptides were tested using the MTT assays: HCC1937 and HCC137+wildtype BRCA1 cells were grown in DMEM 1× (supplemented with 10% fetal bovine serum and 5% penicillin/streptomycin) and were plated at a densities of 5.5×10^3 or 7×10^3, respectively, in 96 well plates (100 μL total volume per well) and allowed to attach overnight in a 37° C. incubator (5% CO2). Then, caPeptide stock solution was diluted to final working concentrations in DMEM 1× (10% fetal bovine serum and 5% penicillin/streptomycin) of 150 μM, 100 μM, 75 μM, 50 μM, and 25 μM. Media was removed from cells and replaced with media containing caPeptide at various concentrations (200 μL total volume per well). Cells were cultured with caPeptide-containing media for 24, 48 or 72 hours. At the appropriate treatment timepoint, 20 μL MTT (5 mg/mL in PBS) reagent was added to each well and plates were incubated for an additional 4 hours. Media/dye solution was then aspirated and 200 μL DMSO was added to each well. Plates were rocked at room temperature for five minutes to dissolve crystals and transferred to an ELISA plate reader. Absorbance was measured at 550 nm. The extent to which caPeptides inhibited cell proliferation was calculated as a percentage of the absorbance in each well containing caPeptide relative to wells containing no caPeptide (negative control) for both HCC1937 and HCC1937+wild-type BRCA1 cells. […]

[2] = tested on: U937 monocytic lymphoma cells; assay: Cytotoxicity/apoptosis of R9-linked caPCNA peptides in U937 cells by flow cytometry; assay type: cell-based; conditions: 24 hours; for cytotoxic activity / apoptosis: R9 up to 100 μM, caPeptide up to 200 μM; for % cancer cell death: 30 μM of peptide, flow cytometry
Protocol: First, it was tested whether or not the R9 sequence alone had any cytotoxic effect in U937 cells. The U937 cells were treated with up to 100 μM of the R9 sequence for 24 hours.
Once it was established that the R9 sequence promoted cellular uptake of the peptide, increasing amounts of R9-caPep were added to U937 cells to determine if the peptide's uptake would have any cytotoxic effect.
To verify that the cytotoxicity of the R9-caPep was due to the PCNA peptide sequence itself, a scrambled peptide using the same eight amino acids, R9-Scrambled, was prepared (Table 3).
The cancer associated epitope of PCNA is also part of the flexible IDCL region of PCNA. This region of PCNA is considered to have a disordered structure. Disordered regions in proteins are usually associated with protein-to-protein interaction sites. […] To determine which amino acids in the R9-caPep sequence are necessary for binding of the peptide to these proteins, peptide constructs were generated that mutated each amino acid individually to an alanine (Table 3). Each alanine mutant peptide of caPCNA was used to treat U937 cells for 24 hours. An amino acid that is important to protein binding would presumably show decreased cell cytotoxicity when it is substituted with an alanine. Those amino acids which are not critical for binding could be anticipated to show a cytotoxic level similar to that of the unsubstituted peptide. For a comparison of the potential cytotoxic effect of each of the alanine substituted R9-linked caPeptides, U937 cells were treated with 30 μM of peptide. […] It was observed that peptides containing an alanine substituted at position aa126 or aa133 show little cytotoxic activity and therefore were likely important for the peptide's activity.

[3] = tested on: U937 cells; conditions: 100 nM of doxorubicin alone
[4] = tested on: U937 cells; assay: cells; conditions: Homo sapiens, U-937, 24 h
[5] = tested on: HCC1937+wild-type BRCA1 cells; assay: MTT growth inhibition assay, HCC1937+wild-type BRCA1 cells; assay type: cell-based
Protocol: As a genetically matched control, wild-type BRCA1 has been transduced into HCC1937 cells (referred to as HCC1937+wild-type BRCA1). HCC1937+wild-type BRCA1 cells were selected for maintenance of the vector using 1 μg/mL puromycin. All cells in these assays were used at passage numbers <25.
MTT [3-(4,5-dimethylthiazol-2-yl)-2,5-diphenyltetrazolium bromide] assays were conducted with caPeptides at a variety of time points both alone and in combination with a DNA damaging agent e.g., cisplatin in HCC1937 and HCC1937+wild-type BRCA1 cells. […] The color can then be quantified using a simple colorimetric assay. The results are read on a multiwall scanning spectrophotometer (ELISA reader). […]
MTT assays: The efficacy of caPeptides were tested using the MTT assays: HCC1937 and HCC137+wildtype BRCA1 cells were grown in DMEM 1× (supplemented with 10% fetal bovine serum and 5% penicillin/streptomycin) and were plated at a densities of 5.5×10^3 or 7×10^3, respectively, in 96 well plates (100 μL total volume per well) and allowed to attach overnight in a 37° C. incubator (5% CO2). […] Plates were rocked at room temperature for five minutes to dissolve crystals and transferred to an ELISA plate reader. Absorbance was measured at 550 nm. […]

[6] = tested on: U937 cells; assay: Cellular uptake and nuclear localization by fluorescence microscopy; assay type: cell-based; conditions: 10 μM, 24 hours, DAPI overlay
Protocol: To test cellular uptake and nuclear localization of R9-caPep, an N-terminal fluorescein isothiocyanate (FITC) residue was attached to allow microscopic visualization of the peptide's cellular location. The U937 cells were treated with 10 μM of FITC-R9-caPep for 24 hours. The cells were then collected onto a poly-L-lysine coated slide by cytospin and mounted with a media containing the DNA staining dye 4′-6-Diamidino-2-phenylindole (DAPI), which complexes with double stranded DNA and indicates the location of the nucleus. A Leica DM500 fluorescent microscope was used to visualize the staining.

[7] = tested on: MCF 7 (breast cancer); assay: Cell death by flow cytometry in malignant breast cells; assay type: cell-based; conditions: 50 μM, 48 hours
Protocol: The R9-caPeptide was evaluated for cytotoxic effects in non-malignant (MCF 10A) and malignant (MCF 7) breast cells (Table 6). The cells were treated with 50 μM R9-caPeptide for 48 hours and the extent of cell death was evaluated by flow cytometry. […] The significant level of cytotoxicity in breast cancer cells is likely due to enhanced binding interaction of caPeptide with specific DNA repair proteins in these cells, as indicated for example by the observed preferential binding of caPCNA for XPG protein, leading to an inhibition of DNA repair in these cells, and ultimately cell death.

## LGIPEAEY [Q131A]
[1]
  efficacy in MTT assay compared with the other peptides: enhanced efficacy in comparison to wild-type peptides; also recorded: more effective of these peptides tested

## CC[C@H](C)[C@H](NC(=O)CNC(=O)[C@@H](N)CC(C)C)C(=O)N1CCC[C@H]1C(=O)N[C@@H](CCC(=O)O)C(=O)N[C@@H](CCC(N)=O)C(=O)N[C@@H](CCC(=O)O)C(=O)N[C@@H](Cc1ccc(O)cc1)C(=O)O [caPeptide] (H-LGIPEQEY-OH)
[2]
  cytotoxic activity / apoptosis: did not have any cytotoxic activity; also recorded: no increase in apoptosis

## COc1cccc2c1C(=O)c1c(O)c3c(c(O)c1C2=O)C[C@@](O)(C(=O)CO)C[C@@H]3O[C@H]1C[C@H](N)[C@H](O)[C@H](C)O1 [doxorubicin]
[3]
  cell death: 30%
[4]; read-out: IC50 of doxorubicin, U937 cells, 24 hours, doxorubicin alone
  IC50: ~140 nM
[4]; read-out: IC50 of doxorubicin, U937 cells, 24 hours, with 25 μM of R9-caPep
  IC50: ~110 nM

## RRRRRRRRRCCLGIPEAEY [A6-sub. Peptide]
[2]
  % cancer cell death: 93 ± 7%

## N.N.[Cl][Pt][Cl] [cisplatin, reference compound]
[5]; HCC1937+wild-type BRCA1 cells, cisplatin alone
  sensitivity of the cells to cisplatin: relatively resistant
[5]; HCC1937 cells with BRCA1, with R9-PCNA peptide 60 μM, read-out: IC50 value for R9-PCNA peptide (60 μM)+cisplatin
  IC50: ~100 µM
[1]; HCC1937 cells lacking BRCA1, with R9-PCNA peptide 60 μM, read-out: IC50 value for R9-PCNA peptide (60 μM)+cisplatin
  IC50: ~20 µM
[1]; HCC1937 cells, cisplatin alone
  sensitivity of the cells to cisplatin: relatively resistant

## RRRRRRRRRCCLAIPEQEY [A2-sub. Peptide]
[2]
  % cancer cell death: 47 ± 13%

## FITC-RRRRRRRRRCCLGIPEQEY ({FITC}-[dR][dR][dR][dR][dR][dR][dR][dR][dR]CCLGIPEQEY; cysteine pairing not given here) [FITC-R9-caPep, R9-caPep with an N-terminal fluorescein isothiocyanate (FITC) residue]
[6]
  cellular uptake and nuclear localization: internalized by the cells and was accessible to the nucleus

## RRRRRRRRRCCLGAPEQEY [A3-sub. Peptide]
[2]
  % cancer cell death: 21 ± 12%

## RRRRRRRRRCCLGIAEQEY [A4-sub. Peptide]
[2]
  % cancer cell death: 80 ± 7%

## RRRRRRRRRCCLGIPAQEY [A5-sub. Peptide]
[2]
  % cancer cell death: 45 ± 14%

## LGIAEQEY [P129A]
[1]
  efficacy in MTT assay compared with the other peptides: enhanced efficacy in comparison to wild-type peptides

## RRRRRRRRRCCLGIPEQAY [A7-sub. Peptide]
[2]
  % cancer cell death: 88 ± 4%

## RRRRRRRRR [R9, reference compound]
[2]
  cytotoxic activity / apoptosis: did not promote apoptosis; also recorded: did not cause an increase apoptosis

## CC[C@H](C)[C@H](NC(=O)CNC(=O)[C@H](CC(C)C)NC(=O)[C@H](CS)NC(=O)[C@H](CS)NC(=O)[C@@H](CCCNC(=N)N)NC(=O)[C@@H](CCCNC(=N)N)NC(=O)[C@@H](CCCNC(=N)N)NC(=O)[C@@H](CCCNC(=N)N)NC(=O)[C@@H](CCCNC(=N)N)NC(=O)[C@@H](CCCNC(=N)N)NC(=O)[C@@H](CCCNC(=N)N)NC(=O)[C@@H](CCCNC(=N)N)NC(=O)[C@H](N)CCCNC(=N)N)C(=O)N1CCC[C@H]1C(=O)N[C@@H](CCC(=O)O)C(=O)N[C@@H](CCC(N)=O)C(=O)N[C@@H](CCC(=O)O)C(=O)N[C@@H](Cc1ccc(O)cc1)C(=O)O [R9-caPep]
[7]
  cytotoxicity for malignant breast cells (MCF7) relative to non-malignant breast cells (MCF10A): approximately five times more cytotoxic

## RRRRRRRRRCCLGIPEQEA [A8-sub. Peptide]
[2]
  % cancer cell death: 7 ± 6%

## RRRRRRRRRCCAGIPEQEY [A1-sub. Peptide]
[2]
  % cancer cell death: 8 ± 9%
